For series [1], the system named is HBe antigen. Nature of the series: Sera HBeAg ELISA in HBV transgenic mice. The conditions noted are these: males. The format is in vivo. The procedure: (§1) Experimental design. DCP was administered per os, once daily for 14 days to randomly assigned HBV transgenic mice at 23, 7.3, and 2.3 mg/(kg d). ADV was used as a positive control at 10 mg/(kg d) using the same treatment schedule and vehicle (0.4% CMC). On day 14, mice were euthanized to collect serum and liver samples to perform liver HBV DNA, liver core and serum HBe assays, serum cytokine/chemokine profiles, and IDO metabolite assays.
Sera HBeAg. Whole blood samples were obtained during necropsy by cardiac puncture, and processed for an HBeAg-specific ELISA (International Immuno Diagnostics, Foster City Calif.) (Money J D, Motter N E, Taro B, Lay M & Fairman J. Efficacy of cationic lipid-DNA complexes (CLDC) on hepatitis B virus in transgenic mice. Antiviral Res 2008; 79:71-79). Using the known PEI (Paul Ehrlich Institute) units for the calibrator, PEI units were formulated for the serial dilutions of the positive serum. A graph was generated, and extrapolation was used to assign a PEI unit value for each sample.
A general note: ELISA stands for enzyme-linked immunosorbent assay.

A short description of series [2]: Theoretical body fluid level calculated from dose. The settings on record: 69 mg/kg ÷ 0.7 L/kg ÷ 454.4 mg/mmol; mouse. As for the experimental part: DCP at the highest dose tested in mice in this study, 69 mg/kg, yields the following theoretical body fluid level: [DCP]fluid=69 mg/kg÷0.7 L/kg÷454.4 mg/mmol=220 μM.
Series [3] concerns IDO. Nature of the series: Serum tryptophan and kynurenine in HBV transgenic mice. It counts as in vivo. The procedure:
as §1
Tryptophan and kynurenine measurements. Tryptophan (Trp) and kynurenine (Kyn) measurements were carried out as previously described (Widner B, Werner E R, Schennach H, Wachter H & Fuchs D. Simultaneous measurement of serum tryptophan and kynurenine by HPLC. Clin Chem 1997; 43:2424-2426). Kyn/Trp ratios were calculated for each mouse as an estimate of IDO activity.

Setting [4] is: HBV mice generally, 2.3-23.0 mg/(kg day).

On to `Nc1nc([O-])c2nccnc2n1.Nc1nc([O-])c2nccnc2n1.[Ca+2]` [DCP, dipterinyl calcium pentahydrate], for which the “HBe antigen (ELISA) versus controls” value in series [1] (2.3 mg/(kg day)) and in series [1] (7.3 mg/(kg day)) was “significant treatment increases” throughout. Moreover, in series [2], the “theoretical body fluid level [DCP]fluid” value was 220 µM. Besides, the “serum Kyn” value in series [3] (setting [4]) was “did not affect”. For the same compound, the “serum Kyn/Trp” value in series [3] (setting [4]) is “did not affect”. The “serum tryptophan (Trp) versus controls” value in series [3] (male HBV mice, 23.0 mg/(kg day)) is given as “significantly increased”.

(Values after patent publication US20120251495A1, “PTERIN BASED THERAPIES FOR INFLAMMATORY CONDITIONS” (priority 2008, published 2012).)
